Measurements: article PMC5023777 (British Journal of Cancer, 2016)

What was measured:
[1] = system: HCT116 cells; experiment: Cell cycle phase analysis by flow cytometry, HCT116; details: GI50 concentration (100 μM for 6 and 3), 24 h, asynchronous cultures
[2] = molecular target: mTOR (Homo sapiens, UniProt P42345); experiment: mTOR kinase TR-FRET assay; format: biochemical
[3] = system: HCT116 cells; experiment: SRB cell growth inhibition assay, HCT116; format: cell-based, human; details: HCT116 and HT29 cells, SRB GI50
[4] = molecular target: CDK2 (Homo sapiens, UniProt P24941); experiment: CDK2 purified kinase assay; format: biochemical
[5] = system: HCT116 cells; experiment: Clonogenic survival assay, HCT116; format: cell-based, human; details: 10 μM, 72 h exposure

Sequence of mTOR (P42345 1360-2549 limits assumed): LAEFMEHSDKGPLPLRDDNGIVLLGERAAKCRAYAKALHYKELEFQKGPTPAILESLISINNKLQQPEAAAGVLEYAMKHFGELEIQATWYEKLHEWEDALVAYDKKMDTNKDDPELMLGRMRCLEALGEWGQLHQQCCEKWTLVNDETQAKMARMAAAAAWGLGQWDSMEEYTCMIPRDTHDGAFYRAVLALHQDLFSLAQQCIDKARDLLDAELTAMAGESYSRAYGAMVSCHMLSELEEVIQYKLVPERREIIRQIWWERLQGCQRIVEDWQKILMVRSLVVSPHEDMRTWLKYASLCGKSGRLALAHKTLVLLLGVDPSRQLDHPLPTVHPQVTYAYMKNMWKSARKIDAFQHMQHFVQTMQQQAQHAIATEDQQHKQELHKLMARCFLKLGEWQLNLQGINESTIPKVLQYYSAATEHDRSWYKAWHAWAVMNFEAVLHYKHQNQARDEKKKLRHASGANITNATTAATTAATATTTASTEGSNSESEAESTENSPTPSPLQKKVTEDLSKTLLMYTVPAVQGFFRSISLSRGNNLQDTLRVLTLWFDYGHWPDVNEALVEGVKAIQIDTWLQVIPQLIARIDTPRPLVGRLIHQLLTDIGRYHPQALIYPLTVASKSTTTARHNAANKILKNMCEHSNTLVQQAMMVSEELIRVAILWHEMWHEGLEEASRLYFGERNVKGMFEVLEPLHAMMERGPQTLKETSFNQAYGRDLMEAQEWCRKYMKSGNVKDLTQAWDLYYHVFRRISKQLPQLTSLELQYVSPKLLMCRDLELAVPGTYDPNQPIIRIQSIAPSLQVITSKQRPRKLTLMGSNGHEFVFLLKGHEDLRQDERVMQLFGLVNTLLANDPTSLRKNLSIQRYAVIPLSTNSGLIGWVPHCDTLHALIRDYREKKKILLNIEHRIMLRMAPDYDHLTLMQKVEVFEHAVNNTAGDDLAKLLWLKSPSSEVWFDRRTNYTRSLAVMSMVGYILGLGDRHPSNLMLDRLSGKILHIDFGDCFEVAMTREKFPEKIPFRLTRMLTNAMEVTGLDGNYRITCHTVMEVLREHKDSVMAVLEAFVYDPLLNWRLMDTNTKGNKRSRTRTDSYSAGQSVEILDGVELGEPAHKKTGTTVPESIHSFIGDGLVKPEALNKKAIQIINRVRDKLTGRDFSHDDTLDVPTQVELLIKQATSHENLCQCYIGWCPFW

| SMILES | effect on cell cycle phase distribution, HCT116 [1] | IC50 [2] | fold less potent at inhibiting cell growth than 1, 2 and 5 [3] | further results |
| --- | --- | --- | --- | --- |
| Nc1nc(N)c(N=O)c(OCC2CCCCC2)n1 [Compound 2] | greater G1 phase accumulation than rapamycin or dactolisib | 19 µM | – | – |
| CCC(C)Oc1nc(N)nc(N)c1C#N (stereo not shown) [Compound 7, 2,6-Diamino-4-sec-butoxypyrimidine-5-carbonitrile] | – | > 20 µM | 5–10 fold | – |
| Nc1nc(N)c(N=O)c(OCc2ccc(Cl)cc2)n1 [Compound 8, 6-(4-Chlorobenzyloxy)-5-nitrosopyrimidine-2,4-diamine] | – | 4.9 µM | 5–10 fold | inhibition of CDK2 (in words) [4]: did not inhibit CDK2 |
| Cn1c(=O)n(-c2ccc(C(C)(C)C#N)cc2)c2c3cc(-c4cnc5ccccc5c4)ccc3ncc21 [Dactolisib (NVP-BEZ235)] | caused a G1 arrest | – | – | – |
| NS(=O)(=O)c1ccc(Nc2nc(OCC3CCCCC3)c3nc[nH]c3n2)cc1 [NU6102, 4-[[6-(cyclohexylmethoxy)-9H-purin-2-yl]amino]-benzenesulfonamide] | – | – | – | cytotoxicity (clonogenic), HCT116 [5]: cytotoxic as a single agent |
| CO[C@H]1C[C@@H]2CC[C@@H](C)[C@@](O)(O2)C(=O)C(=O)N2CCCC[C@H]2C(=O)O[C@H]([C@H](C)C[C@@H]2CC[C@@H](O)[C@H](OC)C2)CC(=O)[C@H](C)/C=C(\C)[C@@H](O)[C@@H](OC)C(=O)[C@H](C)C[C@H](C)/C=C/C=C/C=C/1C [Rapamycin] | caused a G1 arrest | – | – | – |
